Results on eight compounds are retold here after patent US11771699B2, “Combined treatment with a TLR7 agonist and an HBV capsid assembly inhibitor” (Hoffmann-La Roche Inc., priority 2015, dated 2023).

pEC50: −log10 of the molar value. Read-outs that look alike come from different tables or passages of the source.

The subject of one experiment is HBV. The settings on record: HBV infected transgenic mouse or humanized mouse models; cited from earlier work.
A further experiment has as its system HBV (AAV-HBV). Format: in vivo, C57BL/6 mice. The settings on record: for reduction in HBV DNA: Compound 2 12 mg/kg QD; for effect on HBV DNA: Example 7, FIG. 4-6; for effect on HBV DNA / effect on HBsAg: single treatment, 6 weeks PO, Compound 5 12 mg/kg QD; for effect on HBsAg: Example 7, FIG. 5-6. An excerpt:
4-week old male C57BL/6 mice, specific pathogen free, were purchased from Shanghai Laboratory Animal Center of Chinese Academy of Sciences (SLAC) and housed in an animal care facility in individually ventilated cages under controlled temperature and light conditions following the Institutional Animal Care guidelines. AAV/HBV virus was purchased from Beijing FivePlus Molecular Medicine Institute (Beijing, China). This recombinant virus carries 1.3 copies of the HBV genome, which was packaged in AAV serotype 8 (AAV8) capsids. C57BL/6 mice were injected with […], of recombinant virus, diluted in saline buffer, through tail vein injection. The mice were bled at days 7 and 14 post injection to monitor HBV surface antigen (HBsAg), HBV e antigen (HBeAg), HBs antibody (HBsAb) and HBV genomic DNA in serum, and then were randomly grouped according to these HBV biomarkers.
Measurement of HBV Biomarkers
Serum HBsAg and HBeAg was measured using CLIA kits (Autobio Diagnostics Co., Ltd, Zhengzhou, China) according to the manufacturer's instructions. The lower limit of detection for HBsAg and HBeAg was 0.1 ng/mL and 0.25 NCU/mL (national clinical unit/mL) respectively. Serum dilution of 100-fold (for HBsAg) or 500-fold (for HBeAg) was used to obtain values within the linear range of the standard curve. Serum HBV DNA was extracted using a MagNA Pure 96 DNA and Viral NA Small Volume Kit (Roche) following the manufacturer's instructions. The DNA samples were analyzed by real-time quantitative PCR (qPCR) using a HBV-specific primer and probe set for specific amplification and detection of a 128 bp HBV genome region from the nucleotide 2969 to 3096. The sequences of the primers and probe are shown as follows: […]
Anti-HBs in the serum was measured on day 24 after the treatment ended using Anti-HBs CLIA kits (Autobio Diagnostics Co., Ltd, Zhengzhou, China) following the manufacturer's instructions. The serum samples were 3-fold diluted and 50 μL of the diluted samples were used for the assay.
10 mg/mL of Compound 1 and 1.2 mg/mL of Compound 2 was formulated as an inclusion complex with 2% Klucel LF, 0.1% Polysorbate 80, and 0.1% Parabens in water. All the mice were orally dosed for a total of 6 weeks followed by a 2-week off-treatment period. In one single-treatment control study, the five mice of the group Compound 1 were treated with Compound 1 at 100 mg/kg every other day (QOD). The vehicle group was treated with an equivalent volume of oral-QD vehicle placebo (2% Klucel LF, 0.1% Polysorbate 80, and 0.1% Parabens in water). In the combination therapy study, the five mice of the group Compound 2 were administered at 12 mg/kg orally once daily (QD). The group Combo received 100 mg/kg of Compound 1 QOD plus 12 mg/kg Compound 2 QD. The vehicle group was treated with an equivalent volume of oral-QD vehicle placebo (2% Klucel LF, 0.1% Polysorbate 80, and 0.1% Parabens in water).
In another independent study, more combinations of a TLR7 agonist plus a Capsid inhibitor and corresponding single compound treatments were tested (summarized in Table 2) using the same AAV-HBV mouse model and method of measurement of HBV biomarkers described in Example 5.
In this study, eight mice were recruited in each group, and animals received the first dose on day 28 post AAV-HBV infection. The tested combinations included Compound 1 plus Compound 4, Compound 3 plus Compound 4, and Compound 1 plus Compound 5.

Another experiment deals with T1, human TLR7 (Homo sapiens, UniProt Q9NYK1).
T1 sequence (Q9NYK1 27-1049): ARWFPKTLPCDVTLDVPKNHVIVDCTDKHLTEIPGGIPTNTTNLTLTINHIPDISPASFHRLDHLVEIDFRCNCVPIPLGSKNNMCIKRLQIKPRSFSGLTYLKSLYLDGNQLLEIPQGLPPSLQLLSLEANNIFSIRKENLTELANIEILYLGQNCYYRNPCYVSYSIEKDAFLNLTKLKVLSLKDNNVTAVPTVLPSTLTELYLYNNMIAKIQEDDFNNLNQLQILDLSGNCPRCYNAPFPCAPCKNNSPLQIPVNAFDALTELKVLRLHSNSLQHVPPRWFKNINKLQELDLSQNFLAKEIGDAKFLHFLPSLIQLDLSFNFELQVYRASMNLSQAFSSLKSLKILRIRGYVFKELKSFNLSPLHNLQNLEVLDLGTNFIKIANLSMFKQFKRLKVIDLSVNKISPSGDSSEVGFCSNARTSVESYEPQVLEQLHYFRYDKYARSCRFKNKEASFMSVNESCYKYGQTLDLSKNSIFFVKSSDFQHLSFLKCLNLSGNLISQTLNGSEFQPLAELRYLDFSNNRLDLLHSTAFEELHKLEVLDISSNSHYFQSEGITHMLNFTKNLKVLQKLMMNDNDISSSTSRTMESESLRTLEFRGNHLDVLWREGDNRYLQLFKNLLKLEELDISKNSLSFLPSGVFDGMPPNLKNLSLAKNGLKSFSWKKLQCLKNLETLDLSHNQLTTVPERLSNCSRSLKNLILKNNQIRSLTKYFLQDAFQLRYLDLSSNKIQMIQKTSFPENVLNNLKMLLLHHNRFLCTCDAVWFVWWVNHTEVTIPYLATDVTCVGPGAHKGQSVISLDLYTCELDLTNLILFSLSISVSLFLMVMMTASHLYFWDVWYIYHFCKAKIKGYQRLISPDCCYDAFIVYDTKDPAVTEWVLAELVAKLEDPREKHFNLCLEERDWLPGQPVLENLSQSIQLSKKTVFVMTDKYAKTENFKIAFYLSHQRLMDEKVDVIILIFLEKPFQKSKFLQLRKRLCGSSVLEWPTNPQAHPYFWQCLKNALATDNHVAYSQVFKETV
Nature of the experiment: HEK293-Blue-hTLR-7 cells assay (NF-κB/AP-1 SEAP reporter). The format is cell-based. The settings on record: 20 hours incubation, read-out: TLR7 agonism activity in HEK293-hTLR-7 assay. The text has this:
HEK293-Blue-hTLR-7 Cells Assay:
A stable HEK293-Blue-hTLR-7 cell line was purchased from InvivoGen (Cat.#: hkb-htlr7, San Diego, Calif., USA). These cells were designed for studying the stimulation of human TLR7 by monitoring the activation of NF-κB. A SEAP (secreted embryonic alkaline phosphatase) reporter gene was placed under the control of the IFN-β[…] minimal promoter fused to five NF-κB and AP-1-binding sites. The SEAP was induced by activating NF-κB and AP-1 via stimulating HEK-Blue hTLR7 cells with TLR7 ligands. Therefore the reporter expression was regulated by the NF-κB promoter upon stimulation of human TLR7 for 20 hours. The cell culture supernatant SEAP reporter activity was determined using QUANTI-Blue™ kit (Cat.#: rep-qb1, Invivogen, San Diego, Ca, USA) at a wavelength of 640 nm, a detection medium that turns purple or blue in the presence of alkaline phosphatase.
HEK293-Blue-hTLR7 cells were incubated at a density of 250,000˜450,000 cells/mL in a volume of 180 μL in a 96-well plate in Dulbecco's Modified Eagle's medium (DMEM) containing 4.5 g/L glucose, 50 U/mL penicillin, […], […], 2 mM L-glutamine, 10% (v/v) heat-inactivated fetal bovine serum for 24 h. […]

Setting [1] is: Example 6, FIG. 1, serum, after a 6-week treatment, oral, Compound 1 100 mg/kg QOD.
Where [2] appears, read: Example 6, FIG. 1, serum, after a 6-week treatment, Compound 2 12 mg/kg QD oral.
Setting [3] is: Compound 4 20 mg/kg QD, Compound 3 30 mg/kg QOD.
The mark [4] stands for this setting: Example 8, FIG. 8, serum, end of the 6-week treatment, Compound 8 300 mg/kg QOD PO.

Take `COC(=O)C1=C(C)NC(c2ncc(F)cc2F)=N[C@H]1c1ccc(F)cc1Cl` [Bay 41-4109]: in the experiment on HBV, the “in vivo efficacy (HBV DNA)” value is “in vivo efficacy with HBV DNA reduction”.

In the case of `CC[C@H](OC(C)=O)[C@@H]1C[C@@H](O)[C@H](n2c(=O)sc3cnc(N)nc32)O1` [Compound 1, [(1S)-1-[(2S,4R,5R)-5-(5-amino-2-oxo-thiazolo[4,5-d]pyrimidin-3-yl)-4-hydroxy-tetrahydrofuran-2-yl]propyl] acetate], in the experiment with HBV (AAV-HBV) (setting [1]), the “reduction in HBsAg” value is on record as “more than 1 log” and the “reduction in HBV DNA” value was “more than 2 log”.

In the case of `CCOC(=O)C1=C(CN2CCN3C(=O)N(CC(C)(C)C(=O)O)C[C@@H]3C2)NC(c2nccs2)=N[C@H]1c1cccc(F)c1Cl` [Compound 2, 3-[(8aS)-7-[[(4R)-4-(2-chloro-3-fluoro-phenyl)-5-ethoxycarbonyl-2-thiazol-2-yl-1,4-dihydropyrimidin-6-yl]methyl]-3-oxo-5,6,8,8a-tetrahydro-1H-imidazo[1,5-a]pyrazin-2-yl]-2,2-dimethyl-propanoic acid], in the experiment on HBV (AAV-HBV) (setting [1]), the “reduction in HBV DNA” value is given as “more than 3 log”. Moreover, in the experiment on HBV (AAV-HBV) (setting [2]), the “HBV DNA level” value is reported as “below the LLQ” and the “HBsAg level (effect in words)” value was “moderately reduced”.

With `CC(=O)O[C@@H](C1CC1)[C@H]1O[C@@H](n2c(=O)sc3cnc(N)nc32)CS1` [Compound 3, [(S)-[(2S,5R)-5-(5-amino-2-oxo-thiazolo[4,5-d]pyrimidin-3-yl)-1,3-oxathiolan-2-yl]-cyclopropyl-methyl] acetate], in the experiment on HBV (AAV-HBV) (setting [3]), the “effect on HBV DNA” value was “reduced”. For the same compound, the “effect on HBsAg” value in the experiment with HBV (AAV-HBV) (Compound 3 30 mg/kg QOD) is listed as “reduced”.

Turning to `CCOC(=O)C1=C(CN2CCN3C(=O)N(CC(C)(C)C(=O)O)C[C@@H]3C2)NC(c2nccs2)=N[C@H]1c1cccc(F)c1C` [Compound 4, 3-[(8aS)-7-[[(4S)-5-ethoxycarbonyl-4-(3-fluoro-2-methyl-phenyl)-2-thiazol-2-yl-1,4-dihydropyrimidin-6-yl]methyl]-3-oxo-5,6,8,8a-tetrahydro-1H-imidazo[1,5-a]pyrazin-2-yl]-2,2-dimethyl-propanoic acid], the “effect on HBV DNA” value in the experiment with HBV (AAV-HBV) (setting [3]) was “inhibited”. Further, in the experiment on HBV (AAV-HBV) (Example 7, FIG. 4 and 5, serum, end of 6-week treatment, PO, Compound 1 100 mg/kg QOD, Compound 3 30 mg/kg QOD, Compound 4 20 mg/kg QD), the HBsAg reduction is given as 2 log.

With `COC(=O)C1=C(CN2[C@@H]3C[C@H](CC(=O)O)C[C@H]2C(F)(F)C3)NC(c2nccs2)=N[C@H]1c1cccc(F)c1Cl` [Compound 5, 2-[(1R,3S,5S)-8-[[(4R)-4-(2-chloro-3-fluoro-phenyl)-5-methoxycarbonyl-2-thiazol-2-yl-1,4-dihydropyrimidin-6-yl]methyl]-6,6-difluoro-8-azabicyclo[3.2.1]octan-3-yl]acetic acid], in the experiment with HBV (AAV-HBV) (setting [3]), the “effect on HBV DNA” value is “reduced”. In addition, the “effect on HBsAg” value in the experiment on HBV (AAV-HBV) (Compound 3 30 mg/kg QOD) is “reduced”.

Consider `CC(=O)O[C@@H]1C[C@@H](CO)O[C@H]1n1c(=O)sc2cnc(N)nc21` [Compound 8, 5-amino-3-(2′-O-acetyl-3′-deoxy-β-D-ribofuranosyl)-3H-thiazolo[4,5-d]pyrimidin-2-one], for which, in the experiment with HBV (AAV-HBV) (setting [4]), the “HBV DNA reduction” value is “about 2 log” and the HBsAg reduction is on record as roughly 1.5 log.

On to `CC[C@H](O)[C@@H]1C[C@@H](O)[C@H](n2c(=O)sc3c(=O)[nH]c(N)nc32)O1` [compound 11], for which, at human TLR7, the pEC50 was 4.14.
